Where two headings read alike, the source gives them in different places.
What was measured:
S. pneumoniae NCTC7466 [1] = test: Mouse sepsis model, survival time; assay type: in vivo, BALB/c mice; settings: i.p. infection 1 × 10^3 CFU; drug i.p. thrice a day for 3 d; untreated control 28.8 ± 1.25
Protocol: Female BALB/c mice (12–15 per group) aged 4–6 weeks were used to evaluate the antimicrobial effects of the compounds in vivo. In sepsis models, the mice were intraperitoneally infected with 100 μL S. pneumoniae NCTC7466 strain suspension (1 × 10^3 CFU). […] Two control groups were injected with 100 μL 1% DMSO (dissolved the drugs, negative control) or PEN (0.42 mg/kg/d, positive control) following the same injection route. The result was expressed as cumulative survival times following 7 d of observation.

S. pseudopneumoniae = test: MIC against S. pseudopneumoniae; assay type: cell-based; settings: Streptococcus pseudopneumoniae; S. pseudopneumoniae clinical isolate; 10^6 CFU/ml; read-out: MIC
Protocol: (§1) Minimum inhibitory concentration (MIC) assays for the antibacterial activities of the compounds were performed according to the standard […] method of the Clinical and Laboratory Standards Institute of America. MIC testing of drug-resistant S. pneumoniae, drug-resistant S. aureus, streptococci and antimicrobial combination was also performed using the same method. Briefly, the drugs were serially diluted 2-fold into eight wells with C+Y medium, yielding final concentrations ranging from […]. Then 10^6 CFU bacteria were added to each well. Inoculated medium containing 1% DMSO served as a bacterial growth control, whereas uninoculated medium served as a sterility control. The plates were incubated at 37°C for 12–16 h. […] The experiment was repeated three times.

S. pneumoniae = test: Checkerboard test with erythromycin or tetracycline against S. pneumoniae; assay type: cell-based, Streptococcus pneumoniae
Protocol: The antimicrobial effects of different combinations of two antimicrobial agents were assayed using the checkerboard test (Bajaksouzian et al., [1997]). Each experiment was repeated thrice. […] The FIC index (FICI) was calculated using the following formula:
(§2) (2) FIC=FICA+FICB=[A]/MICA+[B]/MICB
(§3) where [A] and [B] are the concentrations of drugs A and B, respectively; MICA and FICA are the MIC and FIC of drug A for the organism, respectively; and MICB, and FICB are the MIC and FIC of drug B for the organism, respectively. The FIC index obtained was interpreted as follows: =0.5, synergy; FIC > 2.0, antagonism (Gupta and Kohli, [2003]).

S. mitis = test: MIC against S. mitis; assay type: cell-based; settings: Streptococcus mitis; S. mitis clinical isolate; 10^6 CFU/ml; read-out: MIC
Protocol: as §1

S. mutans = test: MIC against S. mutans; assay type: cell-based; settings: Streptococcus mutans; S. mutans clinical isolate; 10^6 CFU/ml; read-out: MIC
Protocol: as §1

S. pneumoniae NCTC7466 [2] = test: MIC against S. pneumoniae NCTC7466 (D39); assay type: cell-based; settings: Streptococcus pneumoniae, S. pneumoniae NCTC7466 (D39), read-out: MIC
Protocol: as §1

pneumococcal strains = test: MIC against clinical pneumococcal strains (penicillin susceptible, intermediate, resistant); assay type: cell-based, Streptococcus pneumoniae; settings: for MIC50 / MIC90: Streptococcus pneumoniae; for MIC50: read-out: MIC of pneumococcal strains, MIC50; for MIC90: read-out: MIC of pneumococcal strains, MIC90
Protocol: as §1

S. pyogenes = test: MIC against S. pyogenes; assay type: cell-based; settings: Streptococcus pyogenes; S. pyogenes clinical isolate; 10^6 CFU/ml; read-out: MIC
Protocol: as §1

[3] = tested on: Penicillin-resistant S. pneumoniae strains; test: Checkerboard test with penicillin against penicillin-resistant S. pneumoniae; assay type: cell-based, Streptococcus pneumoniae; settings: Streptococcus pneumoniae, agent alone, read-out: MIC, Alone
Protocol: as §1
The antimicrobial effects of different combinations of two antimicrobial agents were assayed using the checkerboard test (Bajaksouzian et al., [1997]). Each experiment was repeated thrice. The in vitro interaction between the five drugs with PEN was quantified by the fractional inhibitory concentration (FIC). The FIC index (FICI) was calculated using the following formula:
as §2, §3

Cytotoxicity assay (MTT) = assay type: cell-based; settings: African green monkey, Vero cells (African green monkey kidney cells)
Protocol: The cytotoxicity of the drugs to Vero cells (African green monkey kidney cells) was detected as previously described (Huang et al., [2012]) with minor modifications. In 96-well cell culture plates, the cells (~10^3 cells per well) were exposed to the serially diluted drugs for 48 h. Then, relative cell numbers were assayed by co-incubation with 3-(4, 5-dimethylthiazol-2-yl)-2, 5-diphenyltetrazolium bromide for 4 h at 37°C in 5% CO2. Purple formazan salts were dissolved with DMSO after incubation. The absorbance of each well was measured at 595 nm and then converted to percentages of the control (cells treated with 1% DMSO). The concentration of the derivatives with 50% cytotoxicity for Vero cells (CC50) was calculated using GraphPad Prism 5 (San Diego, CA).

full-length VicK protein = biological target: T1, full-length VicK protein (Streptococcus pneumoniae, UniProt Q8DPL8); test: Inhibition assay for ATPase activity of VicK (Kinase-Glo Luminescent Kinase Assay); assay type: biochemical; settings: 6 μg VicK, 5 μM ATP, read-out: IC50 (inhibition of VicK ATPase activity / autophosphorylation) (converted)
T1 construct: 6 His; made in house
T1 sequence (Q8DPL8 whole entry): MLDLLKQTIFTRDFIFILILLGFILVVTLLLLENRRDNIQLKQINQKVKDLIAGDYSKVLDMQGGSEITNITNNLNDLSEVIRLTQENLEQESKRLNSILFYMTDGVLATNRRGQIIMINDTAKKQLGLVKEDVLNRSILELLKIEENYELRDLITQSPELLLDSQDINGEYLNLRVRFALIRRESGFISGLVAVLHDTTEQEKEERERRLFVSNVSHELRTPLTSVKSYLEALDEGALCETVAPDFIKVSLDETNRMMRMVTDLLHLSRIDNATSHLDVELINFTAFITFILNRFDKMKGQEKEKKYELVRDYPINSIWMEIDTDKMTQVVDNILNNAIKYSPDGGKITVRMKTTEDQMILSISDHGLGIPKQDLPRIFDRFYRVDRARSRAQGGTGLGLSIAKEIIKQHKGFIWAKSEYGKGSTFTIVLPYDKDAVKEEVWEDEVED
Protocol: The inhibitory activities of the Chinese medicine monomers for the ATPase activity of the full-length VicK protein were evaluated using the Kinase-Glo™Luminescent Kinase Assay (Promega, Madison, USA). Briefly, 6 μg VicK protein was pre-incubated with a series of dilution of compounds in the reaction buffer at 37°C for 30 min. 5 μM ATP was added and incubated for another 30 min. Kinase-Glo™Reagent was also added to detect the remaining ATP recorded from luminescence measurements (RLU). In parallel, the VicK protein with no addition of compounds was used as a control, and the mixture with compounds excluding the VicK protein served as another control. The rate of protein phosphorylation (Rp) inhibition by the compounds was calculated from Equation (1).
(1) Rp=1−RLU(compound+ATP+Reagent) −RLU(compound+ATP+vick+Reagent)/RLU(ATP +Reagent)−RLU(ATP+vick+Reagent)×100%
The half maximal inhibitory concentration (IC50), which is the concentration of inhibition of 50% VicK protein autophosphorylation, was determined by GraphPad Prism 5 (Qin et al., [2006]).

[4] = Penicillin intermediate (n = 12)

## CSC[C@H]1O[C@@H](n2cnc3c(N)ncnc32)[C@H](O)[C@@H]1O [Compound 1, 5′-(Methylthio)-5′-deoxyadenosine]
S. pneumoniae NCTC7466 [1]
  Mean survival of mice ± SEM: 49.5 ± 3.93 h
S. pseudopneumoniae
  MIC: 148 µg/mL
S. pneumoniae; in combination with Erythromycin
  FICI: 2
S. pneumoniae; in combination with Tetracycline
  FICI: 0.9
S. mitis
  MIC: 148 µg/mL
S. mutans
  MIC: 594 µg/mL
S. pneumoniae NCTC7466 [2]
  MIC: 37.1 µg/mL
S. pneumoniae NCTC7466 [2]; value in parentheses
  MIC: 124 µM
Pneumococcal strains; [4]
  MIC of pneumococcal strains, Range: 74 to 594 µg/mL
  MIC50: 148 µg/mL
  MIC90: 296 µg/mL
Pneumococcal strains; Penicillin resistant (n = 15)
  MIC of pneumococcal strains, Range: 296.8 to 593.6 µg/mL
  MIC50: 297 µg/mL
  MIC90: 297 µg/mL
Pneumococcal strains; Penicillin susceptible (n = 7)
  MIC of pneumococcal strains, Range: 74 to 148 µg/mL
  MIC50: 74 µg/mL
  MIC90: 148 µg/mL
S. pyogenes
  MIC: 148 µg/mL
[3]; strain 652336
  MIC: 297 µg/mL
[3]; strain 736007
  MIC: 297 µg/mL
[3]; strain 8364981
  MIC: 148 µg/mL
[3]; strain 12092624
  MIC: 297 µg/mL
Cytotoxicity assay (MTT)
  CC50 at 48 h: > 16000 µM
full-length VicK protein
  IC50: 3.8 µM
full-length VicK protein; value in parentheses
  IC50: 3.77 µM

Reference: PMC4438233, “Antibacterial effects of Traditional Chinese Medicine monomers against Streptococcus pneumoniae via inhibiting pneumococcal histidine kinase (VicK)” (Frontiers in Microbiology, 2015)
